pIC50: −log10 of the molar value.
The compounds below were run against T1, human capsaicin receptor (Homo sapiens, UniProt Q8NER1) (assay: Calcium mobilization assay, determination of antagonist activity (Example 6)). Details: Table II; determined as described in Example 6 (antagonist activity); "*" = 1 micromolar or less.
T1 construct: pBK-CMV expression construct encoding the full length human capsaicin receptor; expressed in transfected cells
Format: cell-based
How it was run: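 Antagonism measured as inhibition of capsaicin-evoked (final concentration = EC50, from an 8-point 1 nM–3 μM curve) Fluo-3 calcium signal in stable hVR1-HEK293 cells. Test compounds at 1–5 μM final, 0.5–6 h dark preincubation at room temperature. IC50 = concentration giving 50% reduction versus agonist-only response.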

T1 sequence (Q8NER1 whole entry): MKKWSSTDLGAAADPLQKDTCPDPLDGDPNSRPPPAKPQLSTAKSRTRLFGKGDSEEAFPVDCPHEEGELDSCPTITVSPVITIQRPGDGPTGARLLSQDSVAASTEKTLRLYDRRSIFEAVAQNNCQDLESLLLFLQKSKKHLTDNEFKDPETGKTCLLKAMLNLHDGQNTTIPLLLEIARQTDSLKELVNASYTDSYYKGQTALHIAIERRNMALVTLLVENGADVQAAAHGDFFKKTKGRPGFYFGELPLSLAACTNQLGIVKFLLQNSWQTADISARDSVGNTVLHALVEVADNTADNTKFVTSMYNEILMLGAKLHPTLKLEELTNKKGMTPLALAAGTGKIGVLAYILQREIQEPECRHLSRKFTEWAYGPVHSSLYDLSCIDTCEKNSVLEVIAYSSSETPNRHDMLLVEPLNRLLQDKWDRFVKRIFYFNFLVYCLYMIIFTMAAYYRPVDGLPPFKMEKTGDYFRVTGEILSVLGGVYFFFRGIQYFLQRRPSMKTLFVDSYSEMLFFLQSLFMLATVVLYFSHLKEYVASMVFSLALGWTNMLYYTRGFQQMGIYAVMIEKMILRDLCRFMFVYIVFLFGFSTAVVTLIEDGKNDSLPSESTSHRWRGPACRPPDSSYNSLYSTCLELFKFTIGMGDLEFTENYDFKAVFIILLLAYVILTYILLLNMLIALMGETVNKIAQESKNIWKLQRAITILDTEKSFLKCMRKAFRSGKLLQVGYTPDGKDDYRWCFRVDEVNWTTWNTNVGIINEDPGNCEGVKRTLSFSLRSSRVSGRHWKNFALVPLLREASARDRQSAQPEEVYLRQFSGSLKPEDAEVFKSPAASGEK

| Structure (SMILES) | pIC50 |
| --- | --- |
| C[C@@H]1CN(c2nccnc2Cl)CCN1c1cc(-c2ccc(F)cc2)nc(N2CCCC2)n1 [Example 928, 4-[(2R)-4-(3-chloropyrazin-2-yl)-2-methylpiperazin-1-yl]-6-(4-fluorophenyl)-2-pyrrolidin-1-ylpyrimidine] | ≥ 6.00 |
| C[C@@H]1CN(c2nccnc2Cl)CCN1c1cc(-c2ccc(F)cc2)nc(N2CCOCC2)n1 [Example 929, 4-[4-[(2R)-4-(3-chloropyrazin-2-yl)-2-methylpiperazin-1-yl]-6-(4-fluorophenyl)pyrimidin-2-yl]morpholine] | ≥ 6.00 |
| C[C@@H]1CCCN1c1nc(-c2ccc(F)c(F)c2)cc(N2CCN(c3ncccc3Cl)C[C@@H]2C)n1 [Example 930, 4-[(2S)-4-(3-chloropyridin-2-yl)-2-methylpiperazin-1-yl]-6-(3,4-difluorophenyl)-2-[(2R)-2-methylpyrrolidin-1-yl]pyrimidine] | ≥ 6.00 |
| Cc1cc(C#N)cnc1N1CCN(c2cc(-c3ccc(F)cc3)nc(N3CCCC3C)n2)CC1 (stereo not shown) [Example 931, 6-{4-[6-(4-fluorophenyl)-2-(2-methylpyrrolidin-1-yl)pyrimidin-4-yl]piperazin-1-yl}-5-methylnicotinonitrile] | ≥ 6.00 |
| Cc1cc(C#N)cnc1N1CCN(c2cc(-c3ccc(F)cc3)nc(N3CCCC3C)n2)[C@H](C)C1 (stereo partly shown) [Example 932, 6-{4-[6-(4-fluorophenyl)-2-(2-methylpyrrolidin-1-yl)pyrimidin-4-yl]-3-methylpiperazin-1-yl}-5-methylnicotinonitrile] | ≥ 6.00 |
| CCNC(=O)c1cnc(N2CCN(c3cc(-c4ccc(F)c(Cl)c4)nc(N4CCCC4C)n3)[C@H](C)C2)c(Cl)c1 (stereo partly shown) [Example 933, 5-chloro-6-{4-[6-(3-chloro-4-fluorophenyl)-2-(2-methylpyrrolidin-1-yl)pyrimidin-4-yl]-3-methylpiperazin-1-yl}-N-ethylnicotinamide] | ≥ 6.00 |
| C[C@@H]1CN(c2ncccc2Cl)CCN1c1cc(-c2ccc(Cl)c(F)c2)nc(N2CCC[C@H]2C)n1 [Example 934, 4-(4-chloro-3-fluorophenyl)-6-[(2R)-4-(3-chloropyridin-2-yl)-2-methylpiperazin-1-yl]-2-[(2R)-2-methylpyrrolidin-1-yl]pyrimidine] | ≥ 6.00 |
| C[C@@H]1CN(c2nccnc2Cl)CCN1c1cc(-c2ccc(F)c(F)c2)nc(N2CCC[C@H]2C)n1 [Example 935, 4-[(2R)-4-(3-chloropyrazin-2-yl)-2-methylpiperazin-1-yl]-6-(3,4-difluorophenyl)-2-[(2R)-2-methylpyrrolidin-1-yl]pyrimidine] | ≥ 6.00 |
| C[C@@H]1CN(c2ncccc2C(F)(F)F)CCN1c1cc(-c2ccc(F)c(F)c2)nc(N2CCC[C@H]2C)n1 [Example 936, 4-(3,4-difluorophenyl)-2-[(2R)-2-methylpyrrolidin-1-yl]-6-{(2R)-2-methyl-4-[3-(trifluoromethyl)pyridin-2-yl]piperazin-1-yl}pyrimidine] | ≥ 6.00 |
| C[C@H]1CN(c2nccnc2Cl)CCN1c1cc(-c2ccc(F)c(F)c2)nc(N2CCCC2)n1 [Example 937, 4-[(2S)-4-(3-chloropyrazin-2-yl)-2-methylpiperazin-1-yl]-6-(3,4-difluorophenyl)-2-pyrrolidin-1-ylpyrimidine] | ≥ 6.00 |
| CC1CCCN1c1nc(-c2ccc(F)c(F)c2)cc(N2CCN(c3nccnc3Cl)C[C@@H]2C)n1 (stereo partly drawn) [Example 938, 4-[(2S)-4-(3-chloropyrazin-2-yl)-2-methylpiperazin-1-yl]-6-(3,4-difluorophenyl)-2-(2-methylpyrrolidin-1-yl)pyrimidine] | ≥ 6.00 |
| C[C@@H]1CN(c2ncccc2Cl)CCN1c1cc(-c2ccc(F)c(Cl)c2)nc(N2CCC[C@H]2C)n1 [Example 940, 4-(3-chloro-4-fluorophenyl)-6-[(2R)-4-(3-chloropyridin-2-yl)-2-methylpiperazin-1-yl]-2-[(2R)-2-methylpyrrolidin-1-yl]pyrimidine] | ≥ 6.00 |
| C[C@@H]1CCCN1c1cc(-c2ccc(F)c(Cl)c2)nc(N2CCN(c3ncccc3Cl)C[C@H]2C)n1 [Example 941, 4-(3-chloro-4-fluorophenyl)-2-[(2R)-4-(3-chloropyridin-2-yl)-2-methylpiperazin-1-yl]-6-[(2R)-2-methylpyrrolidin-1-yl]pyrimidine] | ≥ 6.00 |
| C[C@@H]1CN(c2nccnc2Cl)CCN1c1cc(-c2ccc(F)c(Cl)c2)nc(N2CCC[C@H]2C)n1 [Example 942, 4-(3-chloro-4-fluorophenyl)-6-[(2R)-4-(3-chloropyrazin-2-yl)-2-methylpiperazin-1-yl]-2-[(2R)-2-methylpyrrolidin-1-yl]pyrimidine] | ≥ 6.00 |
| C[C@H]1CN(c2ncccc2Cl)CCN1c1cc(-c2ccc(F)c(Cl)c2)nc(Cl)n1 [Example 944, 2-chloro-4-(3-chloro-4-fluorophenyl)-6-[(2S)-4-(3-chloropyridin-2-yl)-2-methylpiperazin-1-yl]pyrimidine] | ≥ 6.00 |
| C[C@@H]1CCCN1c1nc(-c2ccc(F)c(Cl)c2)cc(N2CCN(c3ncccc3Cl)C[C@@H]2C)n1 [Example 945, 4-(3-chloro-4-fluorophenyl)-6-[(2S)-4-(3-chloropyridin-2-yl)-2-methylpiperazin-1-yl]-2-[(2R)-2-methylpyrrolidin-1-yl]pyrimidine] | ≥ 6.00 |
| C[C@H]1CN(c2ncccc2Cl)CCN1c1cc(-c2ccc(F)c(Cl)c2)nc(N2CCCC2)n1 [Example 946, 4-(3-chloro-4-fluorophenyl)-6-[(2S)-4-(3-chloropyridin-2-yl)-2-methylpiperazin-1-yl]-2-pyrrolidin-1-ylpyrimidine] | ≥ 6.00 |
| C[C@H]1CN(c2ncccc2Cl)CCN1c1cc(-c2ccc(F)c(Cl)c2)nc(N2CCOCC2)n1 [Example 947, 4-{4-(3-chloro-4-fluorophenyl)-6-[(2S)-4-(3-chloropyridin-2-yl)-2-methylpiperazin-1-yl]pyrimidin-2-yl}morpholine] | ≥ 6.00 |
| C[C@@H]1CCCN1c1cc(-c2ccc(F)c(Cl)c2)nc(N2CCN(c3ncccc3Cl)C[C@@H]2C)n1 [Example 948, 4-(3-chloro-4-fluorophenyl)-2-[(2S)-4-(3-chloropyridin-2-yl)-2-methylpiperazin-1-yl]-6-[(2R)-2-methylpyrrolidin-1-yl]pyrimidine] | ≥ 6.00 |

Further lines, results first:

| pIC50 | Structure (SMILES) |
| --- | --- |
| ≥ 6.00 | C[C@@H]1CCCN1c1cc(-c2ccc(F)c(F)c2)nc(N2CCN(c3ncccc3Cl)C[C@@H]2C)n1 [Example 949, 2-[(2S)-4-(3-chloropyridin-2-yl)-2-methylpiperazin-1-yl]-4-(3,4-difluorophenyl)-6-[(2R)-2-methylpyrrolidin-1-yl]pyrimidine] |
| ≥ 6.00 | C[C@@H]1CCCN1c1cc(-c2ccc(F)c(F)c2)nc(N2CCN(c3nccnc3Cl)C[C@@H]2C)n1 [Example 950, 2-[(2S)-4-(3-chloropyrazin-2-yl)-2-methylpiperazin-1-yl]-4-(3,4-difluorophenyl)-6-[(2R)-2-methylpyrrolidin-1-yl]pyrimidine] |
| ≥ 6.00 | C[C@@H]1CCCN1c1nc(-c2ccc(F)c(F)c2)cc(N2CCN(c3nccnc3Cl)C[C@@H]2C)n1 [Example 951, 4-[(2S)-4-(3-chloropyrazin-2-yl)-2-methylpiperazin-1-yl]-6-(3,4-difluorophenyl)-2-[(2R)-2-methylpyrrolidin-1-yl]pyrimidine] |
| ≥ 6.00 | C[C@H]1CN(c2ncccc2Cl)CCN1c1cc(-c2ccc(Cl)c(F)c2)nc(Cl)n1 [Example 953, 2-chloro-4-(4-chloro-3-fluorophenyl)-6-[(2S)-4-(3-chloropyridin-2-yl)-2-methylpiperazin-1-yl]pyrimidine] |
| ≥ 6.00 | COc1ccc(Cl)c(N2CCN(c3cc(-c4ccc(F)cc4)nc(N4CCCC4C)n3)[C@H](C)C2)n1 (stereo partly shown) [Example 955, 4-[4-(3-chloro-6-methoxypyridin-2-yl)-2-methylpiperazin-1-yl]-6-(4-fluorophenyl)-2-(2-methylpyrrolidin-1-yl)pyrimidine] |
| ≥ 6.00 | C[C@H]1CN(c2nccnc2Cl)CCN1c1cc(-c2ccc(Cl)c(F)c2)nc(Cl)n1 [Example 956, 2-chloro-4-(4-chloro-3-fluorophenyl)-6-[(2S)-4-(3-chloropyrazin-2-yl)-2-methylpiperazin-1-yl]pyrimidine] |
| ≥ 6.00 | C[C@H]1CN(c2ncccc2Cl)CCN1c1cc(-c2ccc(Cl)c(F)c2)nc(N2CCCC2)n1 [Example 957, 4-(4-chloro-3-fluorophenyl)-6-[(2S)-4-(3-chloropyridin-2-yl)-2-methylpiperazin-1-yl]-2-pyrrolidin-1-ylpyrimidine] |
| ≥ 6.00 | C[C@@H]1CCCN1c1nc(-c2ccc(Cl)c(F)c2)cc(N2CCN(c3ncccc3Cl)C[C@@H]2C)n1 [Example 958, 4-(4-chloro-3-fluorophenyl)-6-[(2S)-4-(3-chloropyridin-2-yl)-2-methylpiperazin-1-yl]-2-[(2R)-2-methylpyrrolidin-1-yl]pyrimidine] |
| ≥ 6.00 | C[C@H]1CN(c2ncccc2Cl)CCN1c1cc(-c2ccc(Cl)c(F)c2)nc(N2CCOCC2)n1 [Example 959, 4-{4-(4-chloro-3-fluorophenyl)-6-[(2S)-4-(3-chtoropyridin-2-yl)-2-methylpiperazin-1-yl]pyrimidin-2-yl}morpholine] |
| ≥ 6.00 | C[C@@H]1CCCN1c1cc(-c2ccc(Cl)c(F)c2)nc(N2CCN(c3ncccc3Cl)C[C@@H]2C)n1 [Example 960, 4-(4-chloro-3-fluorophenyl)-2-[(2S)-4-(3-chloropyridin-2-yl)-2-methylpiperazin-1-yl]-6-[(2R)-2-methylpyrrolidin-1-yl]pyrimidine] |
| ≥ 6.00 | C[C@H]1CN(c2nccnc2Cl)CCN1c1cc(-c2ccc(Cl)c(F)c2)nc(N2CCCC2)n1 [Example 961, 4-(4-chloro-3-fluorophenyl)-6-[(2S)-4-(3-chloropyrazin-2-yl)-2-methylpiperazin-1-yl]-2-pyrrolidin-1-ylpyrimidine] |
| ≥ 6.00 | C[C@H]1CN(c2nccnc2Cl)CCN1c1cc(-c2ccc(Cl)c(F)c2)nc(N2CCOCC2)n1 [Example 962, 4-{4-(4-chloro-3-fluorophenyl)-6-[(2S)-4-(3-chloropyrazin-2-yl)-2-methylpiperazin-1-yl]pyrimidin-2-yl}morpholine] |

— patent US7566712B2, “Biaryl piperazinyl-pyridine analogues” (Neurogen Corporation, priority 2003, dated 2009)
